# Active and inactive are the calls of the source. The rule behind the calls is not given here.
# Biological target: Serine/threonine-protein kinase mTOR (Homo sapiens) (UniProt P42345)
# Assay: binders of mTOR FRB domain, biophysical, NMR (AID 1648)
# Settings: NMR binding to FRB domain, chemical shift
# Chain of Serine/threonine-protein kinase mTOR (Homo sapiens) (P42345 2015-2114): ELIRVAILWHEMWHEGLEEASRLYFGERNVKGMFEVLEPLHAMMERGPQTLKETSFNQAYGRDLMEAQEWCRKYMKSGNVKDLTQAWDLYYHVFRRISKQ
row,Structure (SMILES),Kd
1,O=C1c2ccccc2C(=O)N1Cc1ccco1,> 4 mM (inactive)
2,CC(O)(C(=O)O)c1ccccc1 (stereo unspecified),> 4 mM (inactive)
3,Cc1c(O)c(O)cc2c1CC=C1[C@@]2(C)CC[C@@]2(C)C3C[C@](C)(C(=O)O)CC[C@]3(C)CC[C@]12C (stereo partly specified),> 4 mM (inactive)
4,Cc1nccc2c1[nH]c1ccccc12,> 4 mM (inactive)
5,COc1ccc2cc1Oc1ccc(cc1)C[C@H]1c3cc(c(OC)cc3CCN1C)Oc1c(OC)c(OC)cc3c1[C@H](C2)N(C)CC3,> 4 mM (inactive)
6,Nc1cc(C(F)(F)F)ccc1N1CCOCC1,> 4 mM (inactive)
7,COc1cc(C(C)=O)ccc1OCC(O)Cn1ccnc1 (stereo unspecified),> 4 mM (inactive)
8,O=C(O)c1cc(O)c(O)c(O)c1,> 4 mM (inactive)
9,COc1cc(C(C)=O)cc(OC)c1O,> 4 mM (inactive)
10,CCNC(=S)Nc1c(C)n(C)n(-c2ccccc2)c1=O,> 4 mM (inactive)
11,Cc1ccc(N2C(=O)CCC2=O)cc1,> 4 mM (inactive)
12,Cc1c(C)n2c(SCC(N)=O)nnc2[nH]c1=O,> 4 mM (inactive)
13,Cc1nn2c(=O)nc3sc4c(c3c2[nH]c1=O)CCCC4,> 4 mM (inactive)
14,COc1cc2c(cc1OC)[C@@H]1C(=O)c3ccc4oc(C(C)C)cc4c3O[C@@H]1CO2,> 4 mM (inactive)
15,O=C(O)c1cccc2c1OCCO2,> 4 mM (inactive)
16,O=C(O)c1ccccc1C(=O)NCC1CCCO1 (stereo unspecified),> 4 mM (inactive)
17,CC(=O)Nc1ccc(NC(=O)N2CCOCC2)cc1,> 4 mM (inactive)
18,CC(=O)O[C@H]1C[C@@H](OC(C)=O)C(C)(C)C2CC(=O)[C@]3(C)C(CC[C@@]4(C)[C@H](c5ccoc5)OC(=O)[C@H]5O[C@]543)[C@]21C (stereo partly specified),> 4 mM (inactive)
19,c1csc(-c2nn[nH]n2)c1,> 4 mM (inactive)
20,C[C@@H]1CC[C@@]2(NC1)O[C@H]1C[C@H]3C4CC=C5C[C@@H](O)CC[C@]5(C)C4CC[C@]3(C)C1[C@@H]2C (stereo partly specified),> 4 mM (inactive)
21,O=C(O)CN1C(=O)c2cccc([N+](=O)[O-])c2C1=O,> 4 mM (inactive)

row,Structure (SMILES),Kd
1,Nc1ccc(NS(=O)(=O)c2ccc(N)cc2)cc1,> 4 mM (inactive)
2,O=S1(=O)CCC(NC(=S)Nc2ccccn2)C1 (stereo unspecified),> 4 mM (inactive)
3,Cc1c(/C=N\n2cnnc2)c2ccccc2n1C,> 4 mM (inactive)
4,c1cc2c(cc1[C@H]1OC[C@H]3[C@@H]1CO[C@H]3c1ccc3c(c1)OCO3)OCO2,> 4 mM (inactive)
5,Cc1nnc(SCC(=O)NCc2ccccc2)[nH]c1=O,> 4 mM (inactive)
6,CC(=O)c1sc2nc(N)nn2c1C,> 4 mM (inactive)
7,Cc1csc(NC(=O)c2cccs2)n1,> 4 mM (inactive)
8,Cn1c(=O)n(C)c2nc([N+](=O)[O-])c(Cl)cc21,> 4 mM (inactive)
9,CSc1ccn(CCC(=O)O)c(=O)n1,> 4 mM (inactive)
10,Cn1ccc(C(=O)NC(=S)NN2CCOCC2)n1,> 4 mM (inactive)
11,c1ccc(Cc2nnc3sc(-c4ccncc4)nn23)cc1,> 4 mM (inactive)
12,Cc1cc(C(=O)Nc2sc(C)c(C)c2C#N)no1,> 4 mM (inactive)
13,COc1cccc(NC(=O)c2ncn[nH]2)c1,> 4 mM (inactive)
14,S=C(NC1=NCCS1)Nc1ccccc1,> 4 mM (inactive)
15,C[N+](C)(C)CC(=O)[O-],> 4 mM (inactive)
16,Nc1ccc2c(c1)CCC2=O,> 4 mM (inactive)
17,CC(=O)Nc1cccs1,> 4 mM (inactive)
18,CC(=O)NCC1OCCc2ccccc21 (stereo unspecified),> 4 mM (inactive)
19,Cc1noc(C)c1C(=O)Nc1ccc2c(c1)CCC2,> 4 mM (inactive)
20,Nc1cccc(C(=O)c2ccccc2)c1,> 4 mM (inactive)
21,Cc1[nH]c2ccccc2c1Cc1n[nH]c(=S)n1C,> 4 mM (inactive)

row,Structure (SMILES),Kd
1,CCC(C)C(=O)O[C@@H]1C[C@@]2(C)[C@H](c3ccoc3)OC(=O)CC23OC2(C)O[C@]14[C@]1(C)[C@@H](CC(=O)OC)C5(C)CC1(O)[C@](O)(C5OC(=O)C1(C)OC1C)[C@@H](OC(C)=O)[C@]34O2 (stereo partly specified),> 4 mM (inactive)
2,Nc1[nH]c(=S)[nH]c(=O)c1-c1ccccc1,> 4 mM (inactive)
3,Cc1[nH]c(=O)[nH]c(=O)c1N1CCOCC1,> 4 mM (inactive)
4,OCc1cccs1,> 4 mM (inactive)
5,Cn1c(=O)[nH]c2nc[nH]c2c1=O,> 4 mM (inactive)
6,CN(C(N)=O)C1(C)CCS(=O)(=O)C1 (stereo unspecified),> 4 mM (inactive)
7,C=C1C2CC[C@@]3(C)[C@H](c4ccoc4)OC(=O)C[C@]13O[C@H]1CC(=O)C(C)(C)C(CC(=O)OC)C21C (stereo partly specified),> 4 mM (inactive)
8,Cc1nn2c(nc1=O)SCC2(O)c1ccccc1 (stereo unspecified),> 4 mM (inactive)
9,CC(=O)Oc1ccc(-c2cc(=O)c3c(OC(C)=O)cc(OC(C)=O)cc3o2)cc1,> 4 mM (inactive)
10,CCN(CC)C(=O)c1n[nH]c(=O)c2ccccc12,> 4 mM (inactive)
11,O=C1CNC(=O)N1Cc1ccc(F)cc1,> 4 mM (inactive)
12,CN1CCn2c1nc(N1CCOCC1)nc2=O,> 4 mM (inactive)
13,CSc1nsc(SCc2cnc(C)nc2N)n1,> 4 mM (inactive)
14,CC1(C)C(=O)C=C[C@@]2(C)C1C[C@@H](O)[C@]1(C)C2CC[C@@]2(C)[C@H](c3ccoc3)OC(=O)[C@H]3O[C@]321 (stereo partly specified),> 4 mM (inactive)
15,O=C(O)c1csc(-c2cccs2)n1,> 4 mM (inactive)
16,O=S1(=O)C=C(Nc2ccccc2)CC1,> 4 mM (inactive)
17,CC(=O)Nc1nc2c(s1)C(=O)NCCC2,> 4 mM (inactive)
18,CCOCC(=O)NCc1n[nH]c(=O)c2ccccc12,> 4 mM (inactive)
19,O=C1CN(C(=O)c2ccccc2F)c2ccccc2N1,> 4 mM (inactive)
20,Cc1noc(C)c1C(=O)N1CCC(Cc2ccccc2)CC1,> 4 mM (inactive)
21,COC(=O)C1=C(C)N(Cc2ccco2)C(=O)C1,> 4 mM (inactive)

row,Structure (SMILES),Kd
1,S=C(c1ccc(N2CCOCC2)cc1)N1CCOCC1,> 4 mM (inactive)
2,Cc1noc(C)c1C(=O)NCc1cccs1,> 4 mM (inactive)
3,Cc1cc(O)cc(O)c1C(=O)O,> 4 mM (inactive)
4,Cc1nnc2sc(-c3csc4c3CCCC4)nn12,> 4 mM (inactive)
5,COCc1nc(-c2cc(Br)ccc2OC)no1,> 4 mM (inactive)
6,NCCN=C1NS(=O)(=O)c2ccccc21,> 4 mM (inactive)
7,COc1cc(-c2coc3cc(OC)c(OC)c(OC)c3c2=O)cc(OC)c1OC,> 4 mM (inactive)
8,CNC(=O)c1ccccc1-c1ccccc1,> 4 mM (inactive)
9,CC1SC(=NC(=O)c2ccco2)NC1=O (stereo unspecified),> 4 mM (inactive)
10,COc1ccc(C2CC(=O)c3ccc(OC)cc3O2)cc1 (stereo unspecified),> 4 mM (inactive)
11,COc1ccc2c(c1)OC/C(=C/c1ccc(OC)c(OC)c1)C2=O,> 4 mM (inactive)
12,O=C(c1ccco1)N1CCNCC1,> 4 mM (inactive)
13,O=C(NCc1ccco1)c1ccc(Br)s1,> 4 mM (inactive)
14,CC(=O)Nc1c(C)n(C)n(-c2ccccc2)c1=O,> 4 mM (inactive)
15,COC(=O)CC1SC(=O)NC1=O (stereo unspecified),> 4 mM (inactive)
16,COc1cccc(Oc2ccc(N)cc2)c1,> 4 mM (inactive)
17,Cc1nc2ccccc2c(=O)n1/N=C/c1ccncc1,> 4 mM (inactive)
18,O=C(Nc1ccccc1)C(=O)NC1CC1,> 4 mM (inactive)
